Laboratory results as given in patent US9434743B2, “Indazole derivatives” (TAKEDA PHARMACEUTICAL COMPANY LIMITED, priority 2012, dated 2016).

Assays:
human MetAP2 enzyme [1] = molecular target: T1, human MetAP2 enzyme (Homo sapiens, UniProt P50579); assay: MetAP2 enzyme assay, enzyme complexed with manganese ions; conditions: MetAP2 Mn pIC50, MetAP2 enzyme complexed with manganese ions; Met-AMC substrate at Km
Description: DNA encoding the full-length sequence of human MetAP2 enzyme is amplified by PCR and cloned into a pFastBac expression vector (Invitrogen). Recombinant baculovirus incorporating the MetAP2 construct is generated by transposition using the Bac-to-Bac system (Invitrogen). The expression of recombinant protein is carried out by infection of Spodoptera frugiperda Sf9 cells (Invitrogen) in 5 L Wave Bioreactors (Wave Biotech). Recombinant protein is isolated from cellular extracts by binding to an SP Hitrap Fast Flow or SP Sepharose (Sigma) column, and the protein is eluted using a NaCl gradient. Partially purified extracts of MetAP2 are further purified by an AKTA FPLC over a Superdex-200 column (GE). The purity of MetAP2 protein is determined on denaturing SDS-PAGE gel.
The results for each well are expressed as percent inhibition and calculated using the equation:

human MetAP2 enzyme [2] = molecular target: T1, human MetAP2 enzyme; assay: MetAP2 enzyme assay, enzyme complexed with cobalt ions; conditions: MetAP2 Co pIC50, MetAP2 enzyme complexed with cobalt ions; Met-AMC substrate at Km

T1 sequence (P50579 whole entry): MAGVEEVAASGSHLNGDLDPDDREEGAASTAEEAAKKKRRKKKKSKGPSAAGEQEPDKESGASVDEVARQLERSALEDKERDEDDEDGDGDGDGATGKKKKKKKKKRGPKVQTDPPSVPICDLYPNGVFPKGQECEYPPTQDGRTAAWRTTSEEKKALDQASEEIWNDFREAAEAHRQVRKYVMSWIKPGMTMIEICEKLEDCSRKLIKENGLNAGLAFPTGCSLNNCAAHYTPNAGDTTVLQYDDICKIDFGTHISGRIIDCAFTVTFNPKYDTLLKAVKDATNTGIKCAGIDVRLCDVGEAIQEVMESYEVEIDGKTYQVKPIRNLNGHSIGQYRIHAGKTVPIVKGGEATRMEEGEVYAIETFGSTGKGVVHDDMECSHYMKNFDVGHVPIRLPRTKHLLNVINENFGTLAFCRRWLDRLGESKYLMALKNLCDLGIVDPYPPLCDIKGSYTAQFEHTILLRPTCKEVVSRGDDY

Structure (SMILES) | IC50 (human MetAP2 enzyme [1]) | IC50 (human MetAP2 enzyme [2])
O=S(=O)(NCCO)c1ccc(-c2cc(C(F)(F)F)cc3[nH]ncc23)cn1 [Example 378, N-(2-hydroxyethyl)-5-(6-(trifluoromethyl)-1H-indazol-4-yl)pyridine-2-sulfonamide] | 5.01 nM | 63.1 nM
CN1CCN(C(=O)c2cc(-c3cc(C(F)(F)F)cc4[nH]ncc34)cnc2N)CC1 [Example 282, (2-amino-5-(6-(trifluoromethyl)-1H-indazol-4-yl)pyridin-3-yl)(4-methylpiperazin-1-yl)methanone] | 6.31 nM | 50.1 nM
Cc1nc(N)ccc1-c1cc(C(F)(F)F)cc2[nH]ncc12 [Example 255, 6-methyl-5-(6-(trifluoromethyl)-1H-indazol-4-yl)pyridin-2-amine] | 7.94 nM | 25.1 nM
FC(F)(F)c1cc(-c2cnc3[nH]ncc3c2)c2cn[nH]c2c1 [Example 243, 5-(6-(trifluoromethyl)-1H-indazol-4-yl)-1H-pyrazolo[3,4-b]pyridine] | 5.01 nM | 39.8 nM
NC(=O)c1cc(-c2cc(C(F)(F)F)cc3[nH]ncc23)c[nH]c1=O [Example 231, 2-oxo-5-(6-(trifluoromethyl)-1H-indazol-4-yl)-1,2-dihydropyridine-3-carboxamide] | 6.31 nM | 158 nM
FC(F)(F)c1cc(-c2cnc(NC3CC3)nc2)c2cn[nH]c2c1 [Example 197, N-cyclopropyl-5-(6-(trifluoromethyl)-1H-indazol-4-yl)pyrimidin-2-amine] | 6.31 nM | 63.1 nM
N#Cc1cc(F)ccc1-c1cc(C(F)(F)F)cc2[nH]ncc12 [Example 75, 5-fluoro-2-(6-(trifluoromethyl)-1H-indazol-4-yl)benzonitrile] | 7.94 nM | 158 nM
COc1ccc(C(N)=O)cc1-c1cc(C(F)(F)F)cc2[nH]ncc12 [Example 273, 4-methoxy-3-(6-(trifluoromethyl)-1H-indazol-4-yl)benzamide] | 3.98 nM | 20 nM
O=C(NCc1ccccc1)c1cccc(-c2cc(C(F)(F)F)cc3[nH]ncc23)c1 [Example 34, N-benzyl-3-(6-(trifluoromethyl)-1H-indazol-4-yl)benzamide] | 31.6 nM | 316 nM
CN1CCN(C(=O)c2cc(-c3cc(C(F)(F)F)cc4[nH]ncc34)c(=O)n(C)c2)CC1 [Example 375, 1-methyl-5-(4-methylpiperazine-1-carbonyl)-3-(6-(trifluoromethyl)-1H-indazol-4-yl)pyridin-2(1H)-one] | 10 nM | 126 nM
NS(=O)(=O)c1cc(F)c(-c2cc(C(F)(F)F)cc3[nH]ncc23)cc1F [Example 376, 2,5-difluoro-4-(6-(trifluoromethyl)-1H-indazol-4-yl)benzenesulfonamide] | 5.01 nM | 50.1 nM
Cc1c(-c2cc(C(F)(F)F)cc3[nH]ncc23)ccc2nnnn12 [Example 398, 5-methyl-6-(6-(trifluoromethyl)-1H-indazol-4-yl)tetrazolo[1,5-a]pyridine] | 3.98 nM | 126 nM
Nc1ncc(-c2cc(C(F)(F)F)cc3[nH]ncc23)cn1 [Example 9, 5-(6-(trifluoromethyl)-1H-indazol-4-yl)pyrimidin-2-amine] | 3.98 nM | 50.1 nM
CN(C)C(=O)c1cc(-c2cc(C(F)(F)F)cc3[nH]ncc23)c(=O)n(C)c1 [Example 353, N,N,1-trimethyl-6-oxo-5-(6-(trifluoromethyl)-1H-indazol-4-yl)-1,6-dihydropyridine-3-carboxamide] | 15.8 nM | 794 nM
COc1nc(C(=O)NCCO)ccc1-c1cc(C(F)(F)F)cc2[nH]ncc12 [Example 394, N-(2-hydroxyethyl)-6-methoxy-5-(6-(trifluoromethyl)-1H-indazol-4-yl)picolinamide] | 5.01 nM | 31.6 nM
FC(F)(F)c1cc(-c2ccc(OCCN3CCOCC3)cc2)c2cn[nH]c2c1 [Example 281, 4-(2-(4-(6-(trifluoromethyl)-1H-indazol-4-yl)phenoxy)ethyl)morpholine] | 7.94 nM | 63.1 nM
CS(=O)(=O)Nc1ccc(-c2cc(C(F)(F)F)cc3[nH]ncc23)cc1 [Example 56, N-(4-(6-(trifluoromethyl)-1H-indazol-4-yl)phenyl)methanesulfonamide] | 12.6 nM | 39.8 nM
FC(F)(F)c1cc(-c2cnc3ncccn23)c2cn[nH]c2c1 [Example 151, 3-(6-(trifluoromethyl)-1H-indazol-4-yl)imidazo[1,2-a]pyrimidine] | 6.31 nM | 200 nM
OC(COc1ccccc1-c1cc(C(F)(F)F)cc2[nH]ncc12)CN1CCOCC1 (stereo not drawn) [Example 180, 1-morpholino-3-(2-(6-(trifluoromethyl)-1H-indazol-4-yl)phenoxy)propan-2-ol] | 39.8 nM | 1000 nM
CNC(=O)c1ncncc1-c1cc(C(F)(F)F)cc2[nH]ncc12 [Example 254, N-methyl-5-(6-(trifluoromethyl)-1H-indazol-4-yl)pyrimidine-4-carboxamide] | 31.6 nM | 794 nM

Structure (SMILES) | IC50 (human MetAP2 enzyme [1]) | IC50 (human MetAP2 enzyme [2])
Cc1[nH]cnc1-c1cc(C(F)(F)F)cc2[nH]ncc12 [Example 161, 4-(5-methyl-1H-imidazol-4-yl)-6-(trifluoromethyl)-1H-indazole] | 12.6 nM | 251 nM
NS(=O)(=O)c1ccc(-c2cc(C(F)(F)F)cc3[nH]ncc23)cn1 [Example 345, 5-(6-(trifluoromethyl)-1H-indazol-4-yl)pyridine-2-sulfonamide] | 5.01 nM | 100 nM
OCCn1cc(-c2cc(C(F)(F)F)cc3[nH]ncc23)cn1 [Example 349, 2-(4-(6-(trifluoromethyl)-1H-indazol-4-yl)-1H-pyrazol-1-yl)ethanol] | 6.31 nM | 100 nM
Cc1cc(=O)n(CC#N)cc1-c1cc(C(F)(F)F)cc2[nH]ncc12 [Example 408, 2-(4-methyl-2-oxo-5-(6-(trifluoromethyl)-1H-indazol-4-yl)pyridin-1(2H)-yl)acetonitrile] | 3.98 nM | 79.4 nM
COc1ccc(-c2cc(C(F)(F)F)cc3[nH]ncc23)c(C(N)=O)n1 [Example 201, 6-methoxy-3-(6-(trifluoromethyl)-1H-indazol-4-yl)picolinamide] | 20 nM | 794 nM
O=C(NC1CC1)c1c[nH]c(=O)c(-c2cc(C(F)(F)F)cc3[nH]ncc23)c1 [Example 332, N-cyclopropyl-6-oxo-5-(6-(trifluoromethyl)-1H-indazol-4-yl)-1,6-dihydropyridine-3-carboxamide] | 12.6 nM | 316 nM
FC(F)(F)c1cc(-c2cnc(N3CCCC3)nc2)c2cn[nH]c2c1 [Example 116, 4-(2-(pyrrolidin-1-yl)pyrimidin-5-yl)-6-(trifluoromethyl)-1H-indazole] | 7.94 nM | 39.8 nM
Cc1c(C(=O)NCCO)cc(-c2cc(C(F)(F)F)cc3[nH]ncc23)c(=O)n1C [Example 404, N-(2-hydroxyethyl)-1,2-dimethyl-6-oxo-5-(6-(trifluoromethyl)-1H-indazol-4-yl)-1,6-dihydropyridine-3-carboxamide] | 12.6 nM | 251 nM
N#Cc1ncc(-c2cc(C(F)(F)F)cc3[nH]ncc23)cn1 [Example 198, 5-(6-(trifluoromethyl)-1H-indazol-4-yl)pyrimidine-2-carbonitrile] | 12.6 nM | 631 nM
FC(F)(F)c1cc(-c2cnc3ccnn3c2)c2cn[nH]c2c1 [Example 275, 6-(6-(trifluoromethyl)-1H-indazol-4-yl)pyrazolo[1,5-a]pyrimidine] | 5.01 nM | 126 nM
Cc1nc(NS(=O)(=O)c2cnn(C)c2)ccc1-c1cc(C(F)(F)F)cc2[nH]ncc12 [Example 259, 1-methyl-N-(6-methyl-5-(6-(trifluoromethyl)-1H-indazol-4-yl)pyridin-2-yl)-1H-pyrazole-4-sulfonamide] | 7.94 nM | 31.6 nM
OCc1cncc(-c2cc(C(F)(F)F)cc3[nH]ncc23)c1 [Example 29, (5-(6-(trifluoromethyl)-1H-indazol-4-yl)pyridin-3-yl)methanol] | 6.31 nM | 79.4 nM
Cc1cc(S(=O)(=O)N(C)C)ccc1-c1cc(C(F)(F)F)cc2[nH]ncc12 [Example 125, N,N,3-trimethyl-4-(6-(trifluoromethyl)-1H-indazol-4-yl)benzenesulfonamide] | 31.6 nM | 158 nM
Cn1cnc(N)c(-c2cc(C(F)(F)F)cc3[nH]ncc23)c1=O [Example 245, 6-amino-3-methyl-5-(6-(trifluoromethyl)-1H-indazol-4-yl)pyrimidin-4(3H)-one] | 31.6 nM | 1580 nM
FC(F)(F)c1cc(-c2cn[nH]c2)c2cn[nH]c2c1 [Example 23, 4-(1H-pyrazol-4-yl)-6-(trifluoromethyl)-1H-indazole] | 6.31 nM | 100 nM
CN(C)C(=O)c1cc(F)cc(-c2cc(C(F)(F)F)cc3[nH]ncc23)c1 [Example 115, 3-fluoro-N,N-dimethyl-5-(6-(trifluoromethyl)-1H-indazol-4-yl)benzamide] | 10 nM | 158 nM
Cc1cc(S(N)(=O)=O)ccc1-c1cc(C(F)(F)F)cc2[nH]ncc12 [Example 186, 3-methyl-4-(6-(trifluoromethyl)-1H-indazol-4-yl)benzenesulfonamide] | 7.94 nM | 20 nM
FC(F)(F)c1cc(-c2cnc3[nH]c(C(F)(F)F)nc3c2)c2cn[nH]c2c1 [Example 242, 2-(trifluoromethyl)-6-(6-(trifluoromethyl)-1H-indazol-4-yl)-3H-imidazo[4,5-b]pyridine] | 6.31 nM | 50.1 nM
Cc1cc(C(=O)N2CC(O)C2)ccc1-c1cc(C(F)(F)F)cc2[nH]ncc12 [Example 361, (3-hydroxyazetidin-1-yl)(3-methyl-4-(6-(trifluoromethyl)-1H-indazol-4-yl)phenyl)methanone] | 10 nM | 15.8 nM
